{"source": "paper PMC11252418", "about": "“Specific glycine-dependent enzyme motion determines the potency of conformation selective inhibitors of threonyl-tRNA synthetase” (Communications Biology, 2024)", "key": {"[1]": {"tested_on": "ObaO_WT", "assay": "Thermal shift assay (TSA)", "type": "binding, Pseudomonas fluorescens", "procedure": "(§1) The EcThrRS_WT and L489M/G463S/G463S_Q484A/G463A/A316N mutant proteins, ObaO_WT and ObaO_S464G mutant proteins were prepared at 2 μM in buffer containing 25 mM Tris-HCl pH 7.5, 200 mM NaCl, and 20 μM OB (GlpBio, US) or BN (GlpBio, US) or ddH2O in equal volumes since the compounds were diluted with ddH2O to 1 mM as stocks. […] SYPRO orange dye (Sigma, USA) was diluted in assay buffer containing 25 mM Tris-HCl pH 7.5 and 200 mM NaCl to a 40× concentration, and was added to the mixture to a final 4× concentration. Aliquots (20 μL) were added to a 96-well PCR plate. After complete mixing, the final solutions were heated from 25 to 95 °C at a rate of 0.015 °C/s, and fluorescence signals were monitored by QuantStudio 3 (Applied Biosystems by Thermo Fisher Scientific, USA). The melting temperature (Tm) was calculated through a previously established method[56],[57]."}, "[2]": {"tested_on": "ObaO_S464G", "assay": "Thermal shift assay (TSA)", "type": "binding, Pseudomonas fluorescens", "procedure": "as §1"}, "[3]": {"tested_on": "in vitro translation system of Kluyveromyces marxianus", "type": "biochemical", "settings": "K. marxianus extract, rebuttal letter", "from_the_text": "lactone produced by Pseudomonas fluorescens. Taxonomy, fermentation and biological properties. The Journal of antibiotics 37, 802-803 (1984).\n28 Kumar, P. et al. l-Threonine Transaldolase Activity Is Enabled by a Persistent Catalytic Intermediate. ACS chemical biology 16, 86-95 (2021).\n29 Schaffer, J. E., Reck, M. R., Prasad, N. K. & Wencewicz, T. A. beta-Lactone formation during product release from a nonribosomal peptide synthetase. Nat Chem Biol 13, […]\n30 Scott, T. A., Heine, D., Qin, Z. & Wilkinson, B. An L-threonine transaldolase is required for L-threo-beta-hydroxy-alpha-amino acid assembly during obafluorin biosynthesis. Nature communications 8, 15935 (2017).\n31 Kreitler, D. F., Gemmell, E. M., Schaffer, J. E., Wencewicz, T. A. & Gulick, A. M. The structural basis of N-acyl-alpha-amino-beta-lactone formation catalyzed by a nonribosomal peptide synthetase. Nature communications 10, 3432 (2019).\n32 Jones, M. A. et al. Discovery of L-threonine transaldolases for enhanced biosynthesis of beta-hydroxylated amino acids. Communications biology 6, 929 (2023).\n33 Batey, S. F. D. et al. The catechol moiety of obafluorin is essential for antibacterial\n34 Qiao, H. et al. Tyrosine-targeted covalent inhibition of a tRNA synthetase aided by zinc ion. Communications biology 6, 107 (2023).\nWhether OB has inhibitory activity against eukaryotic ThrRS is also a great question. […]"}, "[4]": {"settings": "2 μM protein, 20 μM compound, mean n = 4"}}, "note": "Where “and” joins values, the source holds several entries; their conditions need not be identical. Equal entries are not always repeated."}
{"smiles": "O=C(N[C@@H]1C(=O)O[C@@H]1Cc1ccc([N+](=O)[O-])cc1)c1cccc(O)c1O", "note": "[OB, Obafluorin]", "values": [{"measurement": "ΔTm (increase of Tm)", "setting": "[1]; [4]", "result": 3.2, "unit": "°C"}, {"measurement": "ΔTm, single replicates", "setting": "[1]; source data sheet Fig.S11a, ObaO_WT, in °C (unit assumed)", "result": "3.257 and 4.712 and 2.142 and 2.576"}, {"measurement": "ΔTm (increase of Tm)", "setting": "[2]; [4]", "result": 14.1, "unit": "°C"}, {"measurement": "ΔTm, single replicates", "setting": "[2]; source data sheet Fig.S11a, ObaO_S464G, in °C (unit assumed)", "result": "14.753 and 14.195 and 14.134 and 13.328"}, {"measurement": "IC50", "setting": "[3]", "result": "~9", "unit": "µM"}]}
